From patent publication US20250188059A1, “NOVEL COMPOUND AND USE THEREOF FOR INHIBITING CHECKPOINT KINASE 2” (ARUM THERAPEUTICS INC, priority 2022, published 2025) come the findings set out here.

Where two headings read alike, the source gives them in different places.

Data set [1] has as its target Chk2 kinase (Homo sapiens (Human), UniProt O96017). Briefly: Chk2 kinase inhibitory activity (LanthaScreen TR-FRET). It is filed as biochemical. To be noted: graded. Summed up: (§1)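 Recombinant Chk1 or Chk2 was mixed with substrate and compound, and the reaction was started with ATP and run 1 h at room temperature. Phosphorylation was detected with a Tb-labelled anti-CREB pSer133 antibody for 30 min, read as the TR-FRET Em520/Em490 ratio. IC50 was fitted from duplicate-well means.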
On the technique in general: In TR-FRET formats the signal depends on donor and acceptor labels being close together.

A short description of data set [2]: Pharmacokinetics test using mice. It is filed as in vivo. To be noted: male, Balb/C, mouse, plasma; for Cmax: read-out: C0/Cmax; for Vd: iv, 1 mg/kg. How it is done:
6 to 8 week-old male Balb/C mice weighing 22-29 g were acclimatized for about 1 week, and then 12 mice for each group were divided into an intravenous administration group and an oral administration group and used in the experiment. The mice were fasted before administration of the compound and were allowed to drink water ad libitum. Feed was provided 2 hours after administration of the compound.
A preparation for intravenous injection (0.2 mg/mL) was prepared by dissolving 1.264 mg of the compound of Example 9 in 6.257 mL of DMSO: a mixed solution of solutol and ethanol (1:1): physiological saline (5:5:90% v/v). A preparation for oral administration (1 mg/mL) was prepared by suspending 5.916 mg of the compound of Example 9 in 5.857 mL of 0.5% methyl cellulose (0.5:99.5% v/v) containing 0.1 Tween 80.
The compound of Example 9 was administered at a dose of 1 mg/kg for intravenous administration and at a dose of 10 mg/kg for oral administration using an oral zonde.
In the case of intravenous administration, blood was collected at 5 minutes, 15 minutes, 30 minutes, 1 hour, 2 hours, 4 hours, 8 hours and 24 hours after administration of the compound. In the case of oral administration, blood was collected at 15 minutes, 30 minutes, 1 hour, 2 hours, 4 hours, 8 hours, 10 hours and 24 hours after administration of the compound. Plasma was separated from the collected blood, and the content of compounds in blood was measured by LC-MS/MS method, and PK parameters were calculated using Phoenix software ver.8.1.

In data set [3] the test system is human breast cancer cell line MCF-7. Briefly: Cancer cell growth inhibition test (CellTiter-Glo). It is filed as cell-based. To be noted: MCF-7, 72 hours. Summed up: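 MCF-7 cells (about 3000/well) pre-incubated 24 hours at 37° C, then exposed 72 hours to serially diluted compound, alone or combined with cisplatin or doxorubicin. Viability read by CellTiter-Glo luminescence as % of DMSO-only wells; values are means of three wells.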
For orientation: In ATP-based viability assays light output follows the ATP content of the culture.

In data set [4] the target is Chk1 kinase (Homo sapiens (Human), UniProt O14757). In words: Chk1 kinase inhibitory activity (LanthaScreen TR-FRET). It is filed as biochemical. Conditions: graded. In outline:
as §1

The mark [5] stands for this setting: Homo sapiens, MCF7, 72 h, graded, read-out: Celltiter glo analysis (IC50).

Chk2 kinase, sequence (O96017 whole entry): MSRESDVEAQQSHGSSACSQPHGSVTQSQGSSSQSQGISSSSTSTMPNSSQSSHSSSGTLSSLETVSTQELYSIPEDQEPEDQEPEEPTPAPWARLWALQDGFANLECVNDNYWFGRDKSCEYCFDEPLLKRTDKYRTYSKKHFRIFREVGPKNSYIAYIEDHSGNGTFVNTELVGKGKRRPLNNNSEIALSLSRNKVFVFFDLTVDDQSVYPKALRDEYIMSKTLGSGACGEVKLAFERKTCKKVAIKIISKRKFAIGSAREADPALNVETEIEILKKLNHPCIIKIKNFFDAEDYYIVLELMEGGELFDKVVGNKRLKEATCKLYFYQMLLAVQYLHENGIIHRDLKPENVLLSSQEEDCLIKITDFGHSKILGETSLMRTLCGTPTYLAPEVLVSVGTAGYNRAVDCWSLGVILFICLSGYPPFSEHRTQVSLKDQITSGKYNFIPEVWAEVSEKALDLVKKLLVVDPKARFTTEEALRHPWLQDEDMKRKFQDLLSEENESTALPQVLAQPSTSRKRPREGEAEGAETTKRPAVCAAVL
Chk1 kinase, sequence (O14757 whole entry): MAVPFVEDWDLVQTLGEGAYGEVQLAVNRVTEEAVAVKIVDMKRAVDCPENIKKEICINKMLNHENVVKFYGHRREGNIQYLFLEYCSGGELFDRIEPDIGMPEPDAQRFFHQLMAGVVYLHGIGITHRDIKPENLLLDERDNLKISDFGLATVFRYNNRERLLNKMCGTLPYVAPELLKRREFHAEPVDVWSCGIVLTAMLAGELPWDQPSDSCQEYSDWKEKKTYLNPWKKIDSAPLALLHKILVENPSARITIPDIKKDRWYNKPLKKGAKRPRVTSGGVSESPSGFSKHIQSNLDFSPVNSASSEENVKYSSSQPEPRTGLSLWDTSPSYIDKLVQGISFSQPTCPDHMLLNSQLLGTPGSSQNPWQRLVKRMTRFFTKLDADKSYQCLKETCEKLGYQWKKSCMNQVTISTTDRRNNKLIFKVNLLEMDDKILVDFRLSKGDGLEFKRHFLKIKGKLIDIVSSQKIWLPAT

A word on the IC50: it is the concentration needed to halve the response being measured. By AUC(0-inf) is commonly meant the area under the concentration-time curve extrapolated to infinity. Broadly, the AUC(0-t) is exposure summed from dosing to a finite time, without extrapolation to infinity. A high value points to high exposure. As a reminder, the clearance is the volume of plasma or blood freed of the substance per unit of time. A high value points to a high capacity for elimination. As a reminder, the half-life is how long it takes for the measured level to halve. Read a low half-life as rapid decline. As usually defined, the bioavailability is the share of a dose that reaches the circulation, judged against a reference dose that is usually intravenous. For orientation: Tmax means the time from dosing to the highest level. With `Nc1ncc(-c2cc(-c3cnn(CC(F)(F)F)c3)ccc2F)nc1C(=O)N[C@@H]1CNC[C@@H](F)C1` [Example 9, 3-amino-6-(2-fluoro-5-(1-(2,2,2-trifluoroethyl)-1H-pyrazol-4-yl)phenyl)-N-((3S,5S)-5-fluoropiperidin-3-yl) pyrazine-2-carboxamide], in data set [1], the IC50 was in the range of 10 to 100 nM. Besides, in data set [2] (IV (1 mg/kg)), the AUC(0-inf) came to 298 ng·h/mL, the exposure AUC(0-t) turned out to be 267 ng·h/mL, the clearance is 56.2 mL/min/kg and the half-life was 1.36 h. In addition, the Cmax in data set [2] (IV (1 mg/kg)) worked out at 231 ng/mL. The bioavailability in data set [2] (PO 10 mg/kg vs IV 1 mg/kg, read-out: Oral bioavailability (% F)) came out at 59%. Also, in data set [2] (PO (10 mg/kg)), the total exposure AUC(0-inf) turned out to be 1770 ng·h/mL, the AUC(0-t) came out at 1730 ng·h/mL, the Tmax is 0.5 h and the half-life is 1.92 h. Further, in data set [2] (PO (10 mg/kg)), the Cmax is 749 ng/mL. In addition, the Vd in data set [2] (IV (1 mg/kg), read-out: Vd) came out at 6.59 L/kg. Besides, in data set [2] (IV (1 mg/kg), read-out: Vss), the Vd was found to be 5.22 L/kg. Also, the half-maximal inhibitory concentration (IC50) in data set [3] (setting [5]) was in the range of 10000 to 100000 nM.

As to `Cn1cc(-c2ccc(F)c(-c3cnc(N)c(C(=O)NC4CCC5(CC5)NC4)n3)c2)cn1` (racemic) [Example 40, 3-amino-6-(2-fluoro-5-(1-methyl-1H-pyrazol-4-yl)phenyl)-N-(4-azaspiro[2.5]octan-6-yl) pyrazine-2-carboxamide], the half-inhibitory concentration (IC50) in data set [1] was at most 10 nM; in data set [3] (setting [5]), above 100000 nM; in data set [4], 10 to 100 nM.

Consider `Nc1ncc(-c2cc(-c3cnn(CC(F)(F)F)c3)ncc2F)nc1C(=O)N[C@@H]1CNCC(F)(F)C1` [Example 4, (S)-3-amino-N-(5,5-difluoropiperidin-3-yl)-6-(5-fluoro-2-(1-(2,2,2-trifluoroethyl)-1H-pyrazol-4-yl)pyridin-4-yl)pyrazine-2-carboxamide], for which the IC50 in data set [1] is 10 to 100 nM; in data set [3] (Homo sapiens, MCF7, 72 h, alone, read-out: Administered alone (IC50)), 48100 nM; in data set [3] (setting [5]), 10000 to 100000 nM; in data set [3] (combination with cisplatin, read-out: Administered in combination with cisplatin (IC50)), 3440 nM; in data set [3] (combination with doxorubicin, read-out: Administered in combination with doxorubicin (IC50)), 670 nM; in data set [4], above 1000 nM.

With `CC(C)(O)Cn1cc(-c2cccc(-c3cnc(N)c(C(=O)N[C@@H]4CNC[C@@H](F)C4)n3)c2)cn1` [Example 29, 3-amino-N-((3S,5S)-5-fluoropiperidin-3-yl)-6-(3-(1-(2-hydroxy-2-methylpropyl)-1H-pyrazol-4-yl)phenyl)pyrazine-2-carboxamide], the half-maximal inhibitory concentration (IC50) in data set [1] was at most 10 nM; in data set [3] (setting [5]) it was 10000 to 100000 nM; in data set [4], 10 to 100 nM.

For `CC1(C)Cc2c(-c3ccc(F)c(-c4cnc(N)c(C(=O)N[C@@H]5CNC[C@@H](F)C5)n4)c3)cnn2C1` [Example 44, 3-amino-6-(5-(5,5-dimethyl-5,6-dihydro-4H-pyrrolo [1,2-b]pyrazol-3-yl)-2-fluorophenyl)-N-((3S,5S)-5-fluoropiperidin-3-yl)pyrazine-2-carboxamide], the concentration for half-maximal inhibition (IC50) in data set [1] was 10 to 100 nM; in data set [3] (setting [5]), at most 10000 nM; in data set [4] it was at most 10 nM.

Regarding `CC1(C)Cc2c(-c3cccc(-c4cnc(N)c(C(=O)N[C@H]5CCCNC5)n4)c3)cnn2C1` [Example 42, (S)-3-amino-6-(3-(5,5-dimethyl-5,6-dihydro-4H-pyrrolo[1,2-b]pyrazol-3-yl)phenyl)-N-(piperidin-3-yl) pyrazine-2-carboxamide], the IC50 was at most 10 nM in data set [1], 10000 to 100000 nM in data set [3] (setting [5]) and 10 to 100 nM in data set [4].

`Nc1ncc(-c2ccnc(-c3cnn(CC(F)(F)F)c3)c2)nc1C(=O)N[C@@H]1CNCC[C@H]1O` [Example 14, 3-amino-N-((3R,4R)-4-hydroxypiperidin-3-yl)-6-(2-(1-(2,2,2-trifluoroethyl)-1H-pyrazol-4-yl)pyridin-4-yl)pyrazine-2-carboxamide]: the IC50 in data set [1] was 10 to 100 nM; in data set [3] (setting [5]), above 100000 nM; in data set [4] it was 100 to 1000 nM.

Consider `CC1(C)Cc2c(-c3cccc(-c4cnc(N)c(C(=O)N[C@H]5CCC6(CC6)NC5)n4)c3)cnn2C1` (stereo in doubt) [Example 65, 3-amino-6-(3-(5,5-dimethyl-5,6-dihydro-4H-pyrrolo[1,2-b]pyrazol-3-yl)phenyl)-N-(4-azaspiro[2.5]octan-6-yl)pyrazine-2-carboxamide], for which the IC50 is 10 to 100 nM in data set [1]; above 100000 nM in data set [3] (graded, read-out: Celltiter glo analysis (IC50)); 10 to 100 nM in data set [4].
